Results reported in ChEMBL document CHEMBL1268862, “Eucophylline, a Tetracyclic Vinylquinoline Alkaloid from Leuconotis eugenifolius” (J Nat Prod, 2010).

Experiment: Antiinflammatory activity in mouse J774.1 cells assessed as inhibition of LPS-induced NO production
Type: functional, cell-based

IC50 | SMILES
7.1 µM | C=Cc1c2c(nc3cc(O)c([C@@H]4C[C@@]5(CC)CCCN6CCc7c(n4c4ccccc74)[C@H]65)cc13)N1CCC[C@](CC)(C2)C1 [LEUCOPHYLLIDINE]
22 µg/mL | CNC(=N)NCCC[C@H](N)C(=O)O [TILARGININE]
